Each block holds one compound with its values, some of them ahead of it.
Molecular target: T1, Bcl-2 protein (Recombinant Human Bcl-2 Protein) (Homo sapiens, UniProt P10415)
T1 construct: purchased Novus NBP2-34889
Test: Binding evaluation of mixture library compounds to Bcl-2 using AS-MS (affinity selection mass spectrometry)
Conditions: for ASMS ratio (%) n = 1 / ASMS ratio (%) n = 2: ASMS Ratio(%)=(A−C)/B×100; for ASMS ratio (%) n = 1: replicate n = 1; for ASMS ratio (%) n = 2: replicate n = 2
Summary of the method: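 ASMS Ratio (%) was calculated as (A−C)/B×100, where A is the protein sample after SEC, B the protein-free sample without SEC and C the protein-free sample after SEC. Each compound was at […] in a 1200-member pool with 20 μM Bcl-2, incubated 1 h at 23° C.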

[1] = AS-MS, mixture of 1200 compounds, Bcl-2
[2] = AS-MS on the mixture of 1200 library compounds

T1 sequence (P10415 whole entry): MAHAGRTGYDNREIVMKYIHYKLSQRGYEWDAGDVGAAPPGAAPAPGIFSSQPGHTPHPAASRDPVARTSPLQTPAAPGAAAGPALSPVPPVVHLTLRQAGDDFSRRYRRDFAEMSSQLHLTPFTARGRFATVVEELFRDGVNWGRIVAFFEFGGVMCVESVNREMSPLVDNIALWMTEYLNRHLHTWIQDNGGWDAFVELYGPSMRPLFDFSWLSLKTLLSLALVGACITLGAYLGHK

Compound: CCOc1cccc(-c2cc(OC)c(CN3CCN(c4ccc(C(=O)NCC56CC7CC(CC(C7)C5)C6)nn4)CC3)c(OC)c2)c1 [B1A085-01, N-(1-Adamantylmethyl)-6-[4-[[4-(3-ethoxyphenyl)-2,6-dimethoxyphenyl]methyl]piperazin-1-yl]pyridazine-3-carboxamide]
ASMS ratio (%) n = 1 [1]: 10.6%
ASMS ratio (%) n = 2 [1]: 10.8%

Compound: CCOc1cncc(-c2ccc(C(=O)N3CCN(c4ccc(C(=O)NS(=O)(=O)C(C)(C)C)cc4)CC3)cc2F)c1 [B2L028-01, N-tert-Butylsulfonyl-4-[4-[4-(5-ethoxypyridin-3-yl)-3-fluorobenzoyl]piperazin-1-yl]benzamide]
ASMS ratio (%) (n = 1): 0.0%
ASMS ratio (%) (n = 2): 0.0%

Compound: CCOc1cncc(-c2cnn(-c3cc(C(=O)N4CCN(c5ccc(C(=O)NS(=O)(=O)c6ccc(NCCSc7ccccc7)c(C(F)(F)F)c6)cc5)CC4)cc(C(F)(F)F)c3)c2)c1 [B2R044-01, 4-[4-[3-[4-(5-Ethoxypyridin-3-yl)pyrazol-1-yl]-5-(trifluoromethyl)benzoyl]piperazin-1-yl]-N-[4-(2-phenylsulfanylethylamino)-3-(trifluoromethyl)phenyl]sulfonylbenzamide]
ASMS ratio (%) (n = 1): −3.7%
ASMS ratio (%) (n = 2): −4.1%

Compound: CCOc1cncc(-c2ccc(CN3CCN(c4ccc(C(=O)NS(=O)(=O)c5ccc(NCCSc6ccccc6)c([N+](=O)[O-])c5)nn4)CC3)c(CC)c2)c1 [B2Q076-01, 6-[4-[[4-(5-Ethoxypyridin-3-yl)-2-ethylphenyl]methyl]piperazin-1-yl]-N-[3-nitro-4-(2-phenylsulfanylethylamino)phenyl]sulfonylpyridazine-3-carboxamide]
ASMS ratio (%) n = 1 (AS-MS, mixture library, Bcl-2): 0.0%

Compound: CCOc1cccc(-c2cc(CN3CCN(c4ccc(C(=O)N(CC)CC)cc4)CC3)cc(OC(C)C)c2)c1 [B4J057-01, 4-[4-[[3-(3-Ethoxyphenyl)-5-propan-2-yloxyphenyl]methyl]piperazin-1-yl]-N,N-diethylbenzamide]
ASMS ratio (%) n = 1 [2]: 5.3%
ASMS ratio (%) n = 2 [2]: −0.1%

Compound: 6-[4-[[2-[2-(3-Ethoxyphenyl)ethynyl]phenyl]methyl]piperazin-1-yl]-N-propylpyridazine-3-carboxamide [B1M053-01]
ASMS ratio (%) n = 1 [1]: −3.0%
ASMS ratio (%) n = 2 [1]: −3.1%

Compound: CCOc1cccc(C#Cc2cncc(C(=O)N3CCN(c4ccc(C(=O)NS(=O)(=O)c5ccc(NCCSc6ccccc6)c(C(F)(F)F)c5)nn4)CC3)c2)c1 [B2R009-01, 6-[4-[5-[2-(3-Ethoxyphenyl)ethynyl]pyridine-3-carbonyl]piperazin-1-yl]-N-[4-(2-phenylsulfanylethylamino)-3-(trifluoromethyl)phenyl]sulfonylpyridazine-3-carboxamide]
ASMS ratio (%) (n = 1): 0.0%
ASMS ratio (%) (n = 2): 19.5%

Compound: CCOc1cccc(-c2cnn(-c3cc(C(=O)N4CCN(c5ccc(C(=O)NS(=O)(=O)CC67CC8CC(CC(C8)C6)C7)nn5)CC4)cc(C(F)(F)F)c3)c2)c1 [B2A021-01, N-(1-Adamantylmethylsulfonyl)-6-[4-[3-[4-(3-ethoxyphenyl)pyrazol-1-yl]-5-(trifluoromethyl)benzoyl]piperazin-1-yl]pyridazine-3-carboxamide]
ASMS ratio (%) n = 1 (AS-MS, mixture library, Bcl-2): 14.4%
ASMS ratio (%) n = 2 (AS-MS, mixture library, Bcl-2): 9.4%

Compound: CCOc1cncc(-c2csc(CN3CCN(c4ccc(C(=O)N(CC)CC)nn4)CC3)c2)c1 [B4J094-01]
ASMS ratio (%) n = 1 (AS-MS, mixture library, Bcl-2): −1.3%
ASMS ratio (%) n = 2 (AS-MS, mixture library, Bcl-2): 0.1%

Compound: CCOc1cccc(-c2cc(CN3CCN(c4ccc(C(=O)NS(=O)(=O)c5ccc(NCCSc6ccccc6)c([N+](=O)[O-])c5)nn4)CC3)cc(OCC)c2)c1 [B2Q081-01, 6-[4-[[3-Ethoxy-5-(3-ethoxyphenyl)phenyl]methyl]piperazin-1-yl]-N-[3-nitro-4-(2-phenylsulfanylethylamino)phenyl]sulfonylpyridazine-3-carboxamide]
ASMS ratio (%) n = 1 (AS-MS, mixture library, Bcl-2): −4.8%
ASMS ratio (%) n = 2 (AS-MS, mixture library, Bcl-2): 0.6%

Compound: CCOc1cccc(-c2ccc(CN3CCN(c4ccc(C(=O)NS(=O)(=O)CCC(F)(F)F)nn4)CC3)c(OC)c2)c1 [B2N079-01]
ASMS ratio (%) (n = 1): 0.0%
ASMS ratio (%) (n = 2): 0.0%

Compound: CCOc1cncc(-c2ccc(C(=O)N3CCN(c4ccc(C(=O)N(CC)CC)cc4)CC3)c3ccccc23)c1 [B4J036-01, 4-[4-[4-(5-Ethoxypyridin-3-yl)naphthalene-1-carbonyl]piperazin-1-yl]-N,N-diethylbenzamide]
ASMS ratio (%) n = 1 [2]: −0.3%
ASMS ratio (%) n = 2 [2]: −1.6%

Compound: CCOc1cncc(-c2cc(CN3CCN(c4ccc(C(=O)NCC56CC7CC(CC(C7)C5)C6)cc4)CC3)cc(OC(F)(F)F)c2)c1 [B1A064-01, N-(1-Adamantylmethyl)-4-[4-[[3-(5-ethoxypyridin-3-yl)-5-(trifluoromethoxy)phenyl]methyl]piperazin-1-yl]benzamide]
ASMS ratio (%) n = 1 [1]: 5.2%
ASMS ratio (%) n = 2 [1]: −1.6%

Compound: CCOc1cccc(-c2ccc(C(=O)N3CCN(c4ccc(C(=O)NS(=O)(=O)c5ccc(NCCSc6ccccc6)c(C(F)(F)F)c5)cc4)CC3)cc2C)c1 [B2R025-01, 4-[4-[4-(3-Ethoxyphenyl)-3-methylbenzoyl]piperazin-1-yl]-N-[4-(2-phenylsulfanylethylamino)-3-(trifluoromethyl)phenyl]sulfonylbenzamide]
ASMS ratio (%) (n = 1): −1.0%
ASMS ratio (%) (n = 2): −2.4%

More lines, now with the values ahead:

ASMS ratio (%) n = 1 (AS-MS, mixture library, Bcl-2): 17.6%
ASMS ratio (%) n = 2 (AS-MS, mixture library, Bcl-2): 0.0%
Compound: CCOc1cccc(-c2ccc(CN3CCN(c4ccc(C(=O)NS(=O)(=O)c5ccc(NCCSc6ccccc6)c([N+](=O)[O-])c5)nn4)CC3)c(OC)c2)c1 [B2Q079-01, 6-[4-[[4-(3-Ethoxyphenyl)-2-methoxyphenyl]methyl]piperazin-1-yl]-N-[3-nitro-4-(2-phenylsulfanylethylamino)phenyl]sulfonylpyridazine-3-carboxamide]

ASMS ratio (%) (n = 1): 21.1%
ASMS ratio (%) (n = 2): −8.8%
Compound: CCOc1cccc(-c2cc(CN3CCN(c4ccc(C(=O)NS(=O)(=O)c5ccc(NCCSc6ccccc6)c(C(F)(F)F)c5)nn4)CC3)cc(OCC)c2)c1 [B2R081-01, 6-[4-[[3-Ethoxy-5-(3-ethoxyphenyl)phenyl]methyl]piperazin-1-yl]-N-[4-(2-phenylsulfanylethylamino)-3-(trifluoromethyl)phenyl]sulfonylpyridazine-3-carboxamide]

ASMS ratio (%) n = 1 [1]: −0.6%
ASMS ratio (%) n = 2 [1]: 0.0%
Compound: CCOc1cncc(-c2ccc(C(=O)N3CCN(c4ccc(C(=O)NCC(F)(F)F)nn4)CC3)cc2F)c1 [B1K006-01, 6-[4-[4-(5-Ethoxypyridin-3-yl)-3-fluorobenzoyl]piperazin-1-yl]-N-(2,2,2-trifluoroethyl)pyridazine-3-carboxamide]

ASMS ratio (%) n = 1 (AS-MS, mixture library, Bcl-2): 6.1%
ASMS ratio (%) n = 2 (AS-MS, mixture library, Bcl-2): 5.6%
Compound: CCOc1cncc(C#Cc2cc(C(=O)N3CCN(c4ccc(C(=O)NS(=O)(=O)c5ccc(NCCSc6ccccc6)c([N+](=O)[O-])c5)nn4)CC3)cc(C(F)(F)F)c2)c1 [B2Q020-01, 6-[4-[3-[2-(5-Ethoxypyridin-3-yl)ethynyl]-5-(trifluoromethyl)benzoyl]piperazin-1-yl]-N-[3-nitro-4-(2-phenylsulfanylethylamino)phenyl]sulfonylpyridazine-3-carboxamide]

ASMS ratio (%) n = 1 [2]: 4.1%
ASMS ratio (%) n = 2 [2]: −2.8%
Compound: CCOc1cccc(-c2ccc(CN3CCN(c4ccc(C(=O)N(C)CC56CC7CC(CC(C7)C5)C6)nn4)CC3)cc2F)c1 [B3A077-01, N-(1-Adamantylmethyl)-6-[4-[[4-(3-ethoxyphenyl)-3-fluorophenyl]methyl]piperazin-1-yl]-N-methylpyridazine-3-carboxamide]

ASMS ratio (%) n = 1 [2]: 4.5%
ASMS ratio (%) n = 2 [2]: −1.5%
Compound: CCOc1cncc(-c2ccc(CN3CCN(c4ccc(C(=O)N(C)CC56CC7CC(CC(C7)C5)C6)nn4)CC3)cc2F)c1 [B3A078-01, N-(1-Adamantylmethyl)-6-[4-[[4-(5-ethoxypyridin-3-yl)-3-fluorophenyl]methyl]piperazin-1-yl]-N-methylpyridazine-3-carboxamide]

ASMS ratio (%) (n = 1): 3.4%
ASMS ratio (%) (n = 2): −9.2%
Compound: CCOc1cccc(-c2cc(CN3CCN(c4ccc(C(=O)NS(=O)(=O)c5ccc(NCCSc6ccccc6)c(C(F)(F)F)c5)nn4)CC3)cc(OC(F)(F)F)c2)c1 [B2R089-01]

ASMS ratio (%) n = 2 [1]: 0.0%
Compound: CCOc1cncc(C#Cc2cncc(C(=O)N3CCN(c4ccc(C(=O)NCC56CC7CC(CC(C7)C5)C6)nn4)CC3)c2)c1 [B1A010-01, N-(1-Adamantylmethyl)-6-[4-[5-[2-(5-ethoxypyridin-3-yl)ethynyl]pyridine-3-carbonyl]piperazin-1-yl]pyridazine-3-carboxamide]

ASMS ratio (%) n = 1 [2]: 1.5%
ASMS ratio (%) n = 2 [2]: 2.6%
Compound: CCOc1cncc(-c2cc(CN3CCN(c4ccc(C(=O)Nc5ccc(OC)cc5)nn4)CC3)cc(OCC)c2)c1 [B1O082-01, 6-[4-[[3-Ethoxy-5-(5-ethoxypyridin-3-yl)phenyl]methyl]piperazin-1-yl]-N-(4-methoxyphenyl)pyridazine-3-carboxamide]

ASMS ratio (%) n = 1 (AS-MS, mixture library, Bcl-2): 14.3%
ASMS ratio (%) n = 2 (AS-MS, mixture library, Bcl-2): 21.9%
Compound: CCOc1cccc(-c2ccc(CN3CCN(c4ccc(C(=O)NS(=O)(=O)CC56CC7CC(CC(C7)C5)C6)nn4)CC3)cc2F)c1 [B2A077-01, N-(1-Adamantylmethylsulfonyl)-6-[4-[[4-(3-ethoxyphenyl)-3-fluorophenyl]methyl]piperazin-1-yl]pyridazine-3-carboxamide]

ASMS ratio (%) n = 1 [2]: −0.5%
ASMS ratio (%) n = 2 [2]: −2.1%
Compound: CCOc1cccc(C#Cc2cc(C(=O)N3CCN(c4ccc(C(=O)N(CC)CC)nn4)CC3)cc(C(F)(F)F)c2)c1 [B4J019-01, 6-[4-[3-[2-(3-Ethoxyphenyl)ethynyl]-5-(trifluoromethyl)benzoyl]piperazin-1-yl]-N,N-diethylpyridazine-3-carboxamide]
